The supplement of paper PMC10307832

Columns and labels:
Experiment in all cases: relative viability (nuclei count vs DMSO), 5 days (fraction); higher = more cells survive
[1] = compound: C[C@@H](Oc1cc(-c2cnn(C3CCNCC3)c2)cnc1N)c1c(Cl)ccc(F)c1Cl [Crizotinib] + CCNC(=O)c1noc(-c2cc(C(C)C)c(O)cc2O)c1-c1ccc(CN2CCOCC2)cc1 [Luminespib] (partner 0.01 µM)
In short: (§1)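 Relative viability divides the nuclei count in treated wells by that in vehicle wells. Lung cancer cell lines were seeded in 1536-well plates, dosed by pin tool the next day, and fixed and stained after 5 days in one step with final 0.05% Triton X-100, 1% formaldehyde and 1 ug/ml Hoechst. Dosing was a single drug or a fixed anchor-drug dose plus five library-drug doses (not always all listed) in √10 steps, and values are medians of duplicate plates imaged at 4×.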

[2] = compound: C[C@@H](Oc1cc(-c2cnn(C3CCNCC3)c2)cnc1N)c1c(Cl)ccc(F)c1Cl [Crizotinib] + CS(=O)(=O)CCNCc1ccc(-c2ccc3ncnc(Nc4ccc(OCc5cccc(F)c5)c(Cl)c4)c3c2)o1 [Lapatinib] (partner 2 µM)
In short: as §1

[3] = compound: C[C@@H](Oc1cc(-c2cnn(C3CCNCC3)c2)cnc1N)c1c(Cl)ccc(F)c1Cl [Crizotinib] + Nc1nc2[nH]cc(CCc3ccc(C(=O)N[C@@H](CCC(=O)O)C(=O)O)cc3)c2c(=O)[nH]1 [Pemetrexed] (partner 0.2 µM)
In short: as §1

[4] = compound: C[C@@H](Oc1cc(-c2cnn(C3CCNCC3)c2)cnc1N)c1c(Cl)ccc(F)c1Cl [Crizotinib] + C[C@]1(O)C[C@@H](c2nc(-c3ccc4ccc(-c5ccccc5)nc4c3)c3c(N)nccn32)C1 [Linsitinib] (partner 1 µM)
In short: as §1

Row | Cell Line | relative viability ([1]; first compound 0.01 µM) | relative viability ([1]; first compound 0.03162 µM) | relative viability ([1]; first compound 0.3162 µM) | relative viability ([2]; first compound 0.01 µM) | relative viability ([2]; first compound 0.1 µM) | relative viability ([2]; first compound 0.3162 µM) | relative viability ([2]; first compound 1 µM) | relative viability ([3]; first compound 0.01 µM) | relative viability ([3]; first compound 0.03162 µM) | relative viability ([3]; first compound 0.1 µM) | relative viability ([3]; first compound 0.3162 µM) | relative viability ([3]; first compound 1 µM) | relative viability ([4]; first compound 0.01 µM) | relative viability ([4]; first compound 0.1 µM) | relative viability ([4]; first compound 0.3162 µM) | relative viability ([4]; first compound 1 µM) | relative viability ([2]; first compound 0.03162 µM) | relative viability ([4]; first compound 0.03162 µM) | relative viability ([1]; first compound 0.1 µM) | relative viability ([1]; first compound 1 µM)
1 | 201T | 1.01 | 1.07 | 1.06 | 0.891 | 1.03 | 1.05 | 1.06 | 0.296 | 0.279 | 0.32 | 0.324 | 0.331 | 1.02 | 1.04 | 1.03 | 1.12 | – | – | – | –
2 | A549 | – | – | – | 0.996 | 1.03 | – | 1.05 | – | – | – | – | – | 0.527 | 0.52 | – | 0.707 | 1.06 | 0.568 | – | –
3 | A-427 | 0.91 | 0.904 | – | 0.852 | 1.09 | – | 1.12 | 0.967 | 0.954 | 0.957 | – | – | 1.1 | 1.16 | – | 1.1 | 1.07 | 1.12 | 0.946 | 0.963
4 | ABC-1 | – | 0.865 | 0.496 | 1.2 | 1.16 | 1.12 | 1.36 | – | – | – | – | – | 0.95 | 1.12 | 1.09 | – | 1.1 | 0.843 | 0.628 | –
5 | BEN | 0.504 | 0.301 | 0.198 | 0.697 | 0.642 | 0.719 | 0.749 | 0.726 | 0.741 | 0.739 | 0.596 | 0.702 | 0.843 | 0.818 | 1.04 | 0.916 | 0.69 | 0.844 | 0.38 | 0.549
6 | CAL-12T | 0.297 | 0.339 | – | 0.664 | 0.658 | – | 0.608 | 1.09 | 1.09 | 1.06 | 1.19 | 1.02 | 0.753 | 0.708 | 0.748 | – | 0.771 | 0.904 | 0.232 | 0.201
7 | COR-L23 | 0.655 | 0.665 | 0.775 | 0.835 | 0.983 | 0.985 | 0.985 | 0.19 | 0.189 | 0.201 | 0.207 | 0.199 | – | 0.844 | 0.802 | 0.925 | 1.1 | 0.876 | 0.656 | 0.687
8 | COR-L 105 | 0.686 | 0.859 | 0.804 | 0.345 | 0.373 | 0.32 | 0.374 | 1.04 | 1.16 | 1 | 1.24 | 1.07 | 1.14 | 0.929 | 0.956 | 0.972 | 0.38 | 1 | 0.712 | 0.769
9 | Calu-6 | – | – | – | 1.07 | 1.07 | 1.05 | 0.991 | – | – | – | – | – | 0.939 | 0.861 | 0.938 | 0.955 | 1.1 | 1.05 | – | –
10 | ChaGo-K-1 | 0.438 | 0.546 | 0.526 | – | – | – | – | 0.253 | 0.249 | 0.253 | 0.241 | 0.261 | – | – | – | – | – | – | 0.517 | 0.747
11 | EBC-1 | – | – | – | 0.213 | 0.197 | 0.206 | 0.205 | – | – | – | – | – | – | 0.889 | 0.159 | 0.167 | 0.223 | 0.886 | – | –
12 | EKVX | 0.953 | – | 0.939 | 0.218 | 0.175 | 0.186 | 0.186 | 0.362 | 0.414 | 0.404 | 0.383 | 0.327 | 1 | 1.02 | 1 | 0.975 | 0.191 | 0.998 | 0.947 | 0.865
13 | EMC-BAC-2 | 1.12 | 1.25 | 1.16 | 0.852 | 0.911 | 0.749 | 0.887 | 0.442 | 0.419 | 0.444 | – | 0.448 | 0.758 | 0.809 | 0.798 | 0.81 | 0.897 | 0.834 | 1.09 | 1.22
14 | EPLC-272H | 0.236 | 0.343 | 0.262 | 0.861 | 0.945 | 0.9 | 1.11 | 0.298 | 0.355 | 0.397 | 0.37 | 0.402 | 1.18 | 1.17 | 1.14 | 1.27 | 0.996 | 1.11 | 0.197 | 0.577
15 | H3255 | 0.928 | 0.971 | 0.743 | 0.254 | 0.234 | 0.238 | 0.219 | 0.556 | 0.553 | 0.592 | 0.54 | 0.557 | 0.806 | 0.974 | 0.841 | 0.962 | 0.267 | 0.924 | 0.831 | –
16 | HARA | 0.819 | 0.77 | – | 0.662 | 0.636 | 0.824 | 0.667 | 0.222 | 0.242 | 0.257 | 0.183 | 0.236 | 0.919 | 0.778 | 0.976 | 0.873 | 0.699 | 0.978 | 0.708 | 0.682
17 | HCC-15 | 0.382 | 0.409 | – | 0.831 | 0.886 | 0.549 | 0.836 | 0.234 | 0.222 | 0.233 | 0.209 | 0.213 | 0.819 | 0.864 | 0.886 | 0.946 | 0.881 | 0.934 | 0.443 | 0.334
18 | HCC-44 | 1.03 | 0.99 | 1.05 | 0.96 | 1.14 | – | 1.05 | 0.603 | 0.648 | 0.689 | 0.593 | 0.665 | 0.646 | 0.595 | 0.704 | 0.719 | 1.02 | 0.721 | 0.988 | 1.06
19 | HCC-78 | – | – | – | 0.77 | 0.697 | 0.261 | 1.26 | 0.88 | 0.865 | 0.889 | 0.855 | – | 0.489 | 0.459 | 0.433 | 0.372 | 0.828 | 0.529 | – | –
20 | HCC-366 | – | – | – | 1 | 1.05 | – | 1.11 | 0.166 | 0.154 | 0.167 | – | 0.202 | 0.64 | 0.649 | – | 0.608 | 1.06 | 0.679 | – | –
